Laboratory results from ChEMBL document CHEMBL1201862, “PubChem BioAssay data set” (2004).
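Compound exposure: 48 hours, 5 concentrations, 96-well plates. GI50 marks 50% less growth.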 The source made the active and inactive calls. Cut-off read from the data, not from the text of the source: active = GI50 up to about 1.1 µM and inactive = higher.

What was measured:
Experiment in all cases: NCI-60 cell line screen, 48 h
786-0 = system: 786-0
MCF7 = system: MCF7
HCC 2998 = system: HCC 2998
DU-145 = system: DU-145
OVCAR-4 = system: OVCAR-4
SR = system: SR
OVCAR-8 = system: OVCAR-8
SK-OV-3 = system: SK-OV-3
COLO 205 = system: COLO 205
Hs-578T = system: Hs-578T
OVCAR-3 = system: OVCAR-3
PC-3 = system: PC-3
MDA-MB-435 = system: MDA-MB-435
HL-60 = system: HL-60
UACC-62 = system: UACC-62
A549 = system: A549
UACC-257 = system: UACC-257
OVCAR-5 = system: OVCAR-5
MDA-MB-231 = system: MDA-MB-231

Compound	GI50 (786-0)	GI50 (MCF7)	GI50 (HCC 2998)	GI50 (DU-145)	GI50 (OVCAR-4)	GI50 (SR)	GI50 (OVCAR-8)	GI50 (SK-OV-3)	GI50 (COLO 205)	GI50 (Hs-578T)	GI50 (OVCAR-3)	GI50 (PC-3)	GI50 (MDA-MB-435)	GI50 (HL-60)	GI50 (UACC-62)	GI50 (A549)	GI50 (UACC-257)	GI50 (OVCAR-5)	GI50 (MDA-MB-231)
COC(=O)/C=C1/OC(c2ccc(OC)cc2)=C(Cl)C1=O	12.1 µM (inactive)	8.32 µM (inactive)	21.3 µM (inactive)	18.2 µM (inactive)	16.3 µM (inactive)	1.61 µM (inactive)	12.9 µM (inactive)	16.7 µM (inactive)	9.91 µM (inactive)	25.8 µM (inactive)	13.3 µM (inactive)	15.2 µM (inactive)	15.6 µM (inactive)	3.8 µM (inactive)	17.4 µM (inactive)	23.7 µM (inactive)	21.6 µM (inactive)	17.1 µM (inactive)	12.3 µM (inactive)
C/C=N\n1c(C)c(C#N)c(C#N)c1N	> 100 µM (inactive)	> 100 µM (inactive)	> 100 µM (inactive)	> 100 µM (inactive)	> 100 µM (inactive)	> 100 µM (inactive)	> 100 µM (inactive)	> 100 µM (inactive)	> 100 µM (inactive)	> 100 µM (inactive)	> 100 µM (inactive)	> 100 µM (inactive)	> 100 µM (inactive)	> 100 µM (inactive)	> 100 µM (inactive)	34.5 µM (inactive)	> 100 µM (inactive)	> 100 µM (inactive)	> 100 µM (inactive)
Cc1cn(CCCCCCOC(=O)NC(CCCNC(N)=O)C(=O)O)c(=O)[nH]c1=O (stereo not given)	> 100 µM (inactive)	> 100 µM (inactive)	> 100 µM (inactive)	> 100 µM (inactive)	> 100 µM (inactive)	> 100 µM (inactive)	> 100 µM (inactive)	> 100 µM (inactive)	> 100 µM (inactive)	> 100 µM (inactive)	> 100 µM (inactive)	> 100 µM (inactive)	> 100 µM (inactive)	> 100 µM (inactive)	> 100 µM (inactive)	> 100 µM (inactive)	> 100 µM (inactive)	> 100 µM (inactive)	> 100 µM (inactive)
CC(C)=CCC/C(C)=C/CC/C(C)=C/CCN(C)CCO	2.11 µM (inactive)	2.45 µM (inactive)	2.03 µM (inactive)	12.7 µM (inactive)	13.9 µM (inactive)	6.35 µM (inactive)	11.7 µM (inactive)	15.1 µM (inactive)	1.72 µM (inactive)	1.88 µM (inactive)	13.8 µM (inactive)	6.47 µM (inactive)	4.44 µM (inactive)	1.95 µM (inactive)	13.5 µM (inactive)	9.77 µM (inactive)	8.24 µM (inactive)	6.46 µM (inactive)	10.9 µM (inactive)
CN(C)CCNc1ccc2nnn3c4ccc(O)cc4c(=O)c1c23	2.15 µM (inactive)	2.44 µM (inactive)	5.48 µM (inactive)	6.31 µM (inactive)	2.08 µM (inactive)	0.18 µM (active)	1.73 µM (inactive)	3.72 µM (inactive)	3.39 µM (inactive)	2.03 µM (inactive)	5.73 µM (inactive)	1.46 µM (inactive)	4.07 µM (inactive)	1.71 µM (inactive)	4.74 µM (inactive)	0.598 µM (active)	9.71 µM (inactive)	4.41 µM (inactive)	0.273 µM (active)
